{"source": "patent US4550186A", "about": "“Binuclear copper (II) carboxylates formed from amine-carboxyboranes” (Duke University, priority 1983, dated 1985)", "key": {"[1]": {"test_system": "Holtzman male rats", "assay": "Antihyperlipidemic screen in normal rats", "type": "in vivo, rat", "description": "Compounds to be tested were suspended in 1% carboxymethylcellulose-water and administered to CF1 male mice (~25 g) intraperitoneally for 16 days or Holtzman male rats (~350 g) orally by an intubation needle for 16 days. On days 9 or 16, blood was obtained by tail vein bleeding and the serum separated by centrifugation for 3 min. The serum cholesterol levels were determined by a modification of the Liebermann-Burchard reaction as described in Ness et al, Clin. Chim. Acta, 10, 229 (1964). Serum was also collected on day 16 and the triglyceride content was determined by a commercial kit, The Fisher Hycel Triglyceride Test Kit.\nData are expressed in the Table 2-7 as percent of control ± the standard deviation. The probable significant level (P) between each test group and the control group was determined by the Student's \"t\" test."}, "[2]": {"assay": "Organ weights", "type": "in vivo, rat", "settings": "for Organ Weight: 14 days 10 mg/Kg/Day, Treated", "description": "Periodic animal weights were obtained during the experiments and expressed as a percentage of the animal's weight on day 0. After dosing for 14 days with test drugs, selected organs were excised, trimmed of fat and weighed. The organ weights were expressed as a percentage of the total body weight of the animal."}, "[3]": {"test_system": "ribonucleic acid synthesis of Ehrlich ascites cells", "assay": "In vivo uridine incorporation into ribonucleic acid", "design": "species or system mouse", "description": "(§1) CF1 male mice (~30 g) were implanted with 2×10^6 Ehrlich ascites tumor cells, intraperitoneally on Day 0. Compound I was suspended by homogenation in 0.05% polysorbate.80-water and administered intraperitoneally at 10 and 20 mg/kg for 9 days to determine its effectiveness for inhibition of tumor growth. Mice were sacrificed on Day 10, and the ascites fluid was collected from the peritoneal cavity. The volume and ascrit (packed cell volume) were determined for each animal and the percent inhibition of tumor growth was calculated. For the metabolic studies, mice were treated on Days 8 and 9 with 10 mg/kg of Compound I, intraperitoneally. The animal was sacrificed on Day 10 and the ascites fluid harvested. […]\nFor in vivo studies, incorporation of thymidine into deoxyribonucleic acid was determined by the method of Chae et al [Proc. Am. […] The deoxyribonucleic acid was isolated and the tritium content was determined in a toluene based scintillation fluid. The deoxyribonucleic acid concentration was determined by the diphenylamine reaction using calf thymus deoxyribonucleic acid as a standard. Uridine incorporation into ribonucleic acid was determined using 10 μCi of 5,6-^3 H-uridine (22.4 Ci/mmol). […] Leucine incorporation into protein was determined by the method of Sartorelli [Biochem. Biophys. […] Protein content was determined by the Lowry procedure using bovine serum albumin as a standard."}, "[4]": {"test_system": "inosinic acid dehydrogenase", "assay": "In vivo inosinic acid dehydrogenase activity", "design": "species or system mouse", "description": "as §1, with “intraperitoneally.” for “intraperitoneally. The animal was sacrificed on Day 10 and the ascites fluid harvested.”\n(§2) Carbamyl phosphate synthetase activity was determined using the reaction medium of Kalman et al [Am. […] Citrulline formed from ornithine was measured at 490 nm by the method of Archibald [J. Biol. Chem., 156, 121 (1944)]. […] The ^14 CO2 generated in 15 min was trapped in 1M KOH and counted. Thymidylate synthetase activity was determined using a post-mitochondrial supernatant (9000 g×10 min) and 5 μCi of 5-^3 H-deoxyuridine monophosphate (14 Ci/mmol) according to the method of Kampf et al [ J. Med. Chem., 19, 903 (1976)]. ^14 C-Formate incorporation into purines was determined by the method of Spassova et al [Biochem. Pharmacol., 25, 923 (1976)] using 0.5 μCi of ^14 C-formic acid (52.0 mCi/mmol). […] The Rf value for xanthine monophosphate was scraped and counted. […]"}, "[5]": {"test_system": "inosinic acid dehydrogenase", "assay": "In vitro inosinic acid dehydrogenase activity", "type": "biochemical, mouse", "settings": "0.25 to 1.0 mM", "description": "as §1, with “intraperitoneally.” for “intraperitoneally. The animal was sacrificed on Day 10 and the ascites fluid harvested.”\nas §2"}, "[6]": {"settings": "rats orally, 10.0 mg/kg, Day 16"}, "[7]": {"settings": "10 mg/kg/day I.P. on Days 8 and 9"}}, "note": "Read-outs that look alike come from different tables or passages of the source.", "data": [{"substance": "{Cu[(CH3)3 N.BH2 CO2 ]2.(CH3)3 N.BH2 COOH} [Compound I]", "values": [{"measurement": "Serum Cholesterol", "setting": "[1]; rats orally, 10.0 mg/kg, Day 9", "value": "63 ± 5", "unit": "% Control"}, {"measurement": "Serum Cholesterol", "setting": "[1]; [6]", "value": "65 ± 5", "unit": "% Control"}, {"measurement": "Serum Triglyceride", "setting": "[1]; [6]", "value": "36 ± 4", "unit": "% Control"}, {"measurement": "Serum triglyceride levels reduced", "setting": "[1]; rats, 10 mg/kg/day", "value": 64, "unit": "%"}, {"measurement": "reduction in serum cholesterol levels", "setting": "[1]; rats, 10 mg/kg/day", "value": 37, "unit": "%"}, {"measurement": "Adrenal weights", "setting": "[2]; after drug administration", "value": "not altered"}, {"measurement": "Organ Weight", "setting": "[2]; rat Adrenal", "value": 0.031, "unit": "gm"}, {"measurement": "Organ Weight", "setting": "[2]; rat Brain", "value": 1.666, "unit": "gm"}, {"measurement": "Organ Weight", "setting": "[2]; rat Chyme", "value": 5.9333, "unit": "gm"}, {"measurement": "Organ Weight", "setting": "[2]; rat Feces", "value": 8.633, "unit": "gm"}, {"measurement": "Organ Weight", "setting": "[2]; rat Heart", "value": 1.021, "unit": "gm"}, {"measurement": "Organ Weight", "setting": "[2]; rat Kidney", "value": 2.167, "unit": "gm"}, {"measurement": "Organ Weight", "setting": "[2]; rat Large Intestine", "value": 4.233, "unit": "gm"}, {"measurement": "Organ Weight", "setting": "[2]; rat Liver", "value": 10.600, "unit": "gm"}, {"measurement": "Organ Weight", "setting": "[2]; rat Lung", "value": 1.933, "unit": "gm"}, {"measurement": "Organ Weight", "setting": "[2]; rat Small Intestine", "value": 6.433, "unit": "gm"}, {"measurement": "Organ Weight", "setting": "[2]; rat Spleen", "value": 0.501, "unit": "gm"}, {"measurement": "Organ Weight", "setting": "[2]; rat Stomach", "value": 1.766, "unit": "gm"}, {"measurement": "3H-Uridine incorporation into ribonucleic acid", "setting": "[3]; [7]", "value": "116 ± 10", "unit": "% Control"}, {"measurement": "uridine incorporation into ribonucleic acid", "setting": "[3]; 10 day Ehrlich ascites cells", "value": "unaffected"}, {"measurement": "Inosinic acid dehydrogenase activity", "setting": "[4]", "value": "essentially not affected"}, {"measurement": "Inosinic acid dehydrogenase activity", "setting": "[4]; [7]", "value": "100 ± 9", "unit": "% Control"}, {"measurement": "inosinic acid dehydrogenase inhibition", "setting": "[5]", "value": "not inhibited"}]}]}
